In patent US20250049678A1, “COMPOUNDS ATTACHABLE TO SKIN” (Inkbox Ink Incorporated, priority 2021, published 2025):

Key:
[1] = UV/visible absorbance after reacting the compound with lysine to mimic skin binding; format: physicochemical; conditions: for visible color after reaction with lysine / UV-light absorption after reaction with lysine: lysine conjugate, mimic of skin binding; for visible color after reaction with lysine: absorbance at wavelengths above 410 nm; for UV-light absorption after reaction with lysine: absorbance at wavelengths below 410 nm; for shift in UV absorbance peak on reaction with lysine: compound versus its lysine conjugate; for absorbance properties / color of the dye compound after binding to lysine: versus the dye compound prior to conjugation with lysine, in solution, FIG. 3D; for UV blocking activity: FIG. 6, salicylic acid as such, attached to hydrogenated genipin anchor, and bound to skin mimic
From the text: A hydrogenated genipin derivative (compound 1) was conjugated with lysine to obtain compound 1-lysine conjugate:
The azo-dye compound of example 5 was conjugated with lysine to obtain a conjugate:
The compound of Example 7 was conjugated with lysine to obtain the lysine conjugate:
The OL compound of example 8 was conjugated with lysine to obtain OL-lysine conjugate: […]

[2] = test system: skin substrate (a porcine skin explant); assay: Sunscreen application on skin substrate: UV-light absorption and retention after wiping, washing and scrubbing
From the text: When referring to protective groups hydrolysable under physiological conditions after application of the topical composition onto the skin here and elswhere in the dislcosure: Such groups are readily known to the skilled person and include, in particular acyl moieties such as optionally substituted acyl moieties comprising 1 to 30, more specifically 1 to 16, and in particular 1 to 12, carbon atoms; 0 to 12, more specifically 0 to 8, and in particular 0 to 6 oxygen atoms; 0 to 8, more specifically 0 to 6, and in particular 0 to 4 nitrogen atoms; 0 to 6, more specifically 0 to 4, and in particular 0 to 3 sulfur atoms; and 0 to 10, more specifically 0 to 8, and in particular 0 to 6 halogen atoms. Specific examples include C1-C18 acyl moieties, more specifically C1-C12 acyl moieties and in particular […]. When referring in this context to “physiological conditions” it should be understood that this in particular refers to the pH conditions encountered at the locus where the compound of formula (I) is supposed to bind to proteins in e.g. the stratum corneum and/or the epidermis of the (mammalian, in particular human) subject to be treated. […]

visible color after reaction with lysine [1] | UV-light absorption after reaction with lysine [1] | shift in UV absorbance peak on reaction with lysine [1] | Structure (SMILES) | further results
no visible color | strong UV-light absorption |  | COC(=O)C1=CN(CCCCC(N)C(=O)O)C=C2C(COC(=O)c3ccccc3O)CCC12 (stereo not drawn) | 
no visible color | strong UV-light absorption |  | C=CC1=CN(CCCCC(N)C(=O)O)C=C(C(=O)OC)C1CC(=O)OCCc1ccc(O)c(O)c1 (stereo not drawn) | 
no visible color | strong UV-absorption | small shift | COC(=O)C1=COC(O)C2C(C)CCC12 (stereo not drawn) [Compound 1, methyl 1-hydroxy-7-methyl-1,4a,5,6,7,7a-hexahydrcyclopenta[c]pyran-4-carboxylate] | 
no visible color | strong UV-light absorption |  | COC(=O)C1=COC(O)C2C(CO)CCC12 (stereo not drawn) [Compound 2, methyl 1-hydroxy-7-(hydroxymethyl)-1,4a,5,6,7,7a-hexahydrocyclopenta[c]pyran-4-carboxylate] | 
 |  |  | COC(=O)C1=COC(O)C2C(COC(=O)c3ccc(/N=N/c4ccccc4)cc3)CCC12 (stereo not drawn) [Example 5, methyl (E)-1-hydroxy-7-(((4-(phenyldiazenyl)benzoyl)oxy)methyl)-1,4a,5,6,7,7a-hexahydrocyclopenta[c]pyran-4-carboxylate] | absorbance properties / color of the dye compound after binding to lysine [1]: does not alter absorbance properties; absorbance properties / color of the dye compound after binding to lysine ([1]; listed as azo-dye-anchor molecule): retains its original color
no visible color is produced |  | small shift in UV absorbance peak | COC(=O)C1=COC(O)C2C(COC(=O)c3ccccc3O)CCC12 (stereo not drawn) [Example 7, methyl 1-hydroxy-7-(((2-hydroxybenzoyl)oxy)methyl)-1,4a,5,6,7,7a-hexahydrocyclopenta[c]pyran-4-carboxylate] | UV blocking activity [1]: retained
almost no visible color |  | small shift in UV absorbance peak | C/C=C1/[C@H](O)OC=C(C(=O)OC)[C@H]1CC(=O)OCCc1ccc(O)c(O)c1 [OL, methyl (4s,5e,6r)-4-[2-[2-(3,4-dihydroxyphenyl)ethoxy]-2-oxoethyl]-5-ethylidene-6-hydroxy-4h-pyran-3-carboxylate] | 
no visible color | strong UV-light absorption |  | COC(=O)C1=CN(CCCCC(N)C(=O)O)C=C2C(C)CCC12 (stereo not drawn) [compound 1-lysine conjugate] | 
 |  |  | CCCCC(CC)COC(=O)c1ccccc1O (stereo not drawn) [octisalate] | UV-light absorption on the skin substrate and removability after wiping ([2]; 50 mM solutions, 2 and 4 hours after application, wiped with a wet tissue at 4 hours, UV light 254 nm, FIG. 4): easily removable from the skin; UV-light absorption / presence on the skin substrate after washing and scrubbing ([2]; 24 and 26 hours total contact time, submerged in water for 2 hours and scrubbed vigorously, UV camera with UV-B filter, FIG. 5): no longer present
 |  |  | O=C(O)c1ccccc1O [salicylic acid, reference compound] | UV blocking activity [1]: UV blocking agent
